Assay [1] concerns the target T1, FNT wild-type (Plasmodium falciparum, UniProt O77389).
T1 construct: expressed in transfected cells; host or cells: Saccharomyces cerevisiae W303-1A jen1Δ ady2Δ, plasmid pDR196 (PMA promoter)
The experiment in a line: yeast test system, 14C-L-lactate uptake, FNT wild-type expressed in Saccharomyces cerevisiae. It is filed as cell-based. From the text:
(§1) The FNT of the wild-type plasmodium (available under accession number PF3D7_0316600 in the data bank PlasmoDB) and of the resistant plasmodia (position of the mutation in the open reading frame: guanine 319 to adenine) were expressed in the yeast Saccharomyces cerevisiae W303-1A jen1Δ ady2Δ from plasmid pDR196 (PMA promoter). In the yeast, the endogenous genes for the monocarboxylate transporter Jenlp (sequence accession No. CAA82062 NCBI) and Ady2p (sequence accession No. KZV 12856) were deleted (obtained from M. Casal, Universidade do Minho, Portugal).
This yeast was grown in SD medium with addition of adenine, histidine, leucine, tryptophan and 2% (wt/v) glucose at 30° C. up to an OD600 of 0.8 to 1.0, harvested by centrifugation and washed once with water and centrifuged down again, and suspended in 50 mM HEPES/TRIS (pH 6.8) and adjusted to an OD600 of 50±10% and stored on ice. For contacting with one of the compounds a compound of one step of a dilution series in DMSO was provided in a reaction vessel and onto this 80 μL of the yeast suspension were pipetted. […] The lactate concentration obtained was 1 mM. After an incubation of 30 s the uptake of lacatate was stopped by a rapid dilution by means of adding of 1 ml ice cold water. From the yeast suspension diluted this way the yeast cells were brought onto a filter membrane by vacuum filtration, washed with 7 ml cold water and transferred with the filter membrane into 3 ml scintillation cocktail. After 24 h of incubation at 18° C. in the scintillation cocktail, in which the cells were lysed, the amount of radioactively labelled lactate was measured by means of a scintillation counter. The total amount of lactate which was taken up by the yeast was calculated from the measured amount of radioactively labelled lactate. As a positive control the yeast was treated equally in parallel testing with DMSO without one of the compounds and was regarded as 100% FNT activity, respectively 0% inhibition. In testings with the compound a lower amount of lactate taken up was found in comparison to the parallel positive control. As a negative control yeast was treated in parallel in which the endogenous genes for the monocarboxylate transporters Jenlp and Ady2p were deleted, but the FNT from plasmodium was not expressed. This negative control was regarded as 0% FNT activity, respectively 100% inhibition.
(§2) As a representative for a Formiate-Nitrit-Transporter protein (FNT) from protozoa, the FNT of Plasmodium falciparum as wild-type and as […] mutant was used, which were each expressed in yeast and incubated with dilutions of the compounds to be tested as described in Example 1.

The target of assay [2] is T2, Gly107Ser mutant of FNT (Plasmodium falciparum, UniProt O77389, G107S).
T2 construct: expressed in transfected cells; host or cells: Saccharomyces cerevisiae W303-1A jen1Δ ady2Δ, plasmid pDR196 (PMA promoter)
T2 sequence (O77389 whole entry G107S): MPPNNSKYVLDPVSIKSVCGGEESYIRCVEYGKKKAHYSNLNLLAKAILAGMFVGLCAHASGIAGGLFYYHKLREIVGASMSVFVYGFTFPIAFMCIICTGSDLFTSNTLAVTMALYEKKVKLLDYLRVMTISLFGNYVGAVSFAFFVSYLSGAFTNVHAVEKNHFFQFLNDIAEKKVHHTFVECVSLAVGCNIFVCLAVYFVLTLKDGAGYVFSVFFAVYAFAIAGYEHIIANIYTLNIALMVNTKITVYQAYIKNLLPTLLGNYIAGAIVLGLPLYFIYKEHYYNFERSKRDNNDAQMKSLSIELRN
The experiment in a line: yeast test system, 14C-L-lactate uptake, FNT Gly107Ser mutant expressed in Saccharomyces cerevisiae. It is filed as cell-based.
Excerpt: as §1
This yeast was grown in SD medium with addition of adenine, histidine, leucine, tryptophan and 2% (wt/v) glucose at 30° C. up to an OD600 of 0.8 to 1.0, harvested by centrifugation and washed once with water and centrifuged down again, and suspended in 50 mM HEPES/TRIS (pH 6.8) and adjusted to an OD600 of 50±10% and stored on ice. For contacting with one of the compounds a compound of one step of a dilution series in DMSO was provided in a reaction vessel and onto this 80 μL of the yeast suspension were pipetted. After an incubation on ice for 15 to 20 min 20 μL 5 mM Na-L-lacate plus 0.04 μCi radioactively labelled L-(1-^14C) lactate was added. The lactate concentration obtained was 1 mM. After an incubation of 30 s the uptake of lacatate was stopped by a rapid dilution by means of adding of 1 ml ice cold water. From the yeast suspension diluted this way the yeast cells were brought onto a filter membrane by vacuum filtration, washed with 7 ml cold water and transferred with the filter membrane into 3 ml scintillation cocktail. After 24 h of incubation at 18° C. in the scintillation cocktail, in which the cells were lysed, the amount of radioactively labelled lactate was measured by means of a scintillation counter. The total amount of lactate which was taken up by the yeast was calculated from the measured amount of radioactively labelled lactate. As a positive control the yeast was treated equally in parallel testing with DMSO without one of the compounds and was regarded as 100% FNT activity, respectively 0% inhibition. In testings with the compound a lower amount of lactate taken up was found in comparison to the parallel positive control. As a negative control yeast was treated in parallel in which the endogenous genes for the monocarboxylate transporters Jenlp and Ady2p were deleted, but the FNT from plasmodium was not expressed. This negative control was regarded as 0% FNT activity, respectively 100% inhibition.
as §2

The subject of assay [3] is resistant plasmodia (FNT mutation Gly107Ser). The experiment in a line: microbe, parasite or virus in culture. It is filed as cell-based, Plasmodium falciparum. Conditions: for IC50: Plasmodium falciparum, read-out: plasmodium culture IC50 against Gly107Ser mutant.
The subject of assay [4] is Plasmodium falciparum. Briefly: growth of Plasmodium falciparum culture (parasitaemia by FACS). It is filed as cell-based. On the procedure:
The effect of the following compounds on the growth of Plasmodium falciparum was tested using cultivated plasmodia:
The plasmodium culture was maintained in 5% 0+ erythrocytes in RPMI 1640 medium with 0.5% Albumax at 37° C. […] A change of medium was made after 24 h and the compounds were added freshly.

Where [5] appears, read: yeast test system, 15 to 20 min preincubation, 1 mM lactate, pH 6.8, read-out: IC50 against FNT wild-type.
Where [6] appears, read: Plasmodium falciparum; read-out: plasmodium culture IC50 against wild-type.
Setting [7] is: Plasmodium falciparum; 48 h after addition, parasitaemia by FACS; read-out: inhibitory effect IC50 on the growth of the plasmodium culture.

Read-outs that look alike come from different tables or passages of the source.

T1 sequence (O77389 whole entry): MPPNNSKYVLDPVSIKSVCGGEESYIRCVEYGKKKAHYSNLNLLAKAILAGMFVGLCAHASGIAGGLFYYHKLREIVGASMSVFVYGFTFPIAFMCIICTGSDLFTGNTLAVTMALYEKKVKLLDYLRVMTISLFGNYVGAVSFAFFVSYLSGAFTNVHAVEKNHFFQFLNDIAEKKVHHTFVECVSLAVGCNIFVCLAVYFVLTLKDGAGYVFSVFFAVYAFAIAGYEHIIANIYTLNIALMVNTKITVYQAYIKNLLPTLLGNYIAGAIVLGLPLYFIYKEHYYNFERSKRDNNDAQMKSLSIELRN

Broadly, the IC50 is the midpoint of a concentration-inhibition curve. As to `CC(=O)C=C(O)C(F)(F)C(F)(F)F` [BH-204], the IC50 stood at 1900 nM in assay [1] (setting [5]) and 8100 nM in assay [2] (yeast test system, 15 to 20 min preincubation, 1 mM lactate, pH 6.8, read-out: IC50 against Gly107Ser mutant of FNT).
On to `CC(C)(O)CC(=O)/C=C(\O)C(F)(F)C(F)(F)F` [BH-262], for which the values for the IC50 in assay [3] and in assay [4] (setting [6]) were 70000 nM and 10000 nM, respectively.
Take `Cn1ccc(C(=O)/C=C(\O)C(F)(F)C(F)(F)F)c1` [BH-269]: the IC50 in assay [2] worked out at 15000 nM.
For the compound `O=C(/C=C(\O)C(F)(F)C(F)(F)F)/C=C/c1ccccc1` [BH-292], the IC50 in assay [1] (setting [5]) worked out at 260 nM; in assay [2] it was 25000 nM.
As to `COc1ccc(C(=O)/C=C(\O)C(F)(F)C(F)(F)F)cc1` [BH-296], the IC50 in assay [1] (setting [5]) worked out at 140 nM; in assay [3] it was 8900 nM; in assay [4] (setting [6]), 3400 nM. Also, the “inhibition of the Gly107Ser mutant (in words)” value in assay [2] was “inhibit the Gly107Ser mutant significantly”. The “effect against the resistant parasites (in words)” value in assay [3] (pharmaceutically acceptable concentration range) is reported as “effective against the resistant parasites”.
`O=C(/C=C(\O)C(F)(F)C(F)(F)F)c1ccc(Cl)cc1` [BH-301]: the IC50 in assay [1] was 120 nM; in assay [2], 5800 nM. Besides, in assay [2], the “inhibition of the Gly107Ser mutant (in words)” value is listed as “inhibit the Gly107Ser mutant significantly”.
As for `O=C(/C=C(\O)C(F)(F)C(F)(F)F)c1cc2ccccc2o1` [BH-306], the IC50 in assay [1] (setting [5]) amounted to 180 nM; in assay [2] it was 15000 nM.
For the compound `O=C(/C=C(\O)C(F)(F)C(F)(F)F)c1ccc(Cl)cc1O` [BH-317], the “inhibition of the FNT in the yeast test system (in words)” value (“inhibition of the FNT” below) in assay [1] is “effective inhibition”. Besides, the IC50 in assay [1] (setting [5]) was 120 nM; in assay [4] (setting [6]), 370 nM. In addition, in assay [4], the “inhibition of the plasmodium culture (in words)” value is given as “effective inhibition”.
With `COc1ccc(CCC(=O)/C=C(\O)C(F)(F)C(F)(F)F)cc1` [BH-324.2], the IC50 was 160 nM in assay [1] and 6300 nM in assay [2]. Also, the “inhibition of the Gly107Ser mutant (in words)” value in assay [2] is on record as “inhibit the Gly107Ser mutant significantly”.
In the case of `CCOc1ccc(C(=O)/C=C(\O)C(F)(F)C(F)(F)F)c(O)c1` [BH-326], the “inhibition of the FNT” value in assay [1] is on record as “effective inhibition”. Also, the IC50 in assay [1] (setting [5]) was determined as 240 nM; in assay [4] (setting [6]), 50 nM. In assay [4], the “inhibition of the plasmodium culture (in words)” value was “effective inhibition”.
`CC(C)Oc1ccc(C(=O)/C=C(\O)C(F)(F)C(F)(F)F)c(O)c1` [BH-340]: the “inhibition of the FNT” value in assay [1] is listed as “effective inhibition”. Moreover, the IC50 in assay [1] (setting [5]) turned out to be 400 nM; in assay [4] (setting [6]) it was 100 nM. Besides, in assay [4], the “inhibition of the plasmodium culture (in words)” value was “effective inhibition”.
On to `COc1ccc(C(=O)/C=C(\O)C(F)(F)C(F)(F)C(F)(F)F)c(O)c1` [BH-362], for which the IC50 in assay [1] (setting [5]) is 250 nM; in assay [4] (Plasmodium falciparum, read-out: plasmodium culture IC50 against wild-type), 570 nM.
Consider `O=C(/C=C(\O)C(F)(F)C(F)(F)F)c1ccc(OCc2ccccc2)cc1O` [BH-388], for which, in assay [1] (setting [5]), the IC50 came to 890 nM.
Turning to `O=C1CC(O)(C(F)(F)C(F)(F)F)Oc2ccccc21` (stereo not shown) [MMV000972, reference compound], the IC50 in assay [4] (setting [7]) came to 1700 nM.
On to `COc1ccc2c(c1)OC(O)(C(F)(F)C(F)(F)F)CC2=O` (stereo not shown) [MMV007839, reference compound], for which the IC50 in assay [1] (preincubation 20 min, read-out: IC50 of lactate transport) came to 170 nM; in assay [1] (preincubation 24 h prior to addition of lactate, read-out: IC50 of lactate transport) it was 15 nM; in assay [4] (setting [7]), 140 nM. The “reversibility of FNT inhibition by washing of the cells” value in assay [1] (washing with 50 mM HEPES-Tris, pH 6.8) is “could not be reduced by washing”.

Values taken from US20190358174A1, “ACTIVE AGENTS AGAINST PROTOZOA” (Christian-Albrechts-Universität zu Kiel, priority 2016, published 2019).
